Assay results as given in ChEMBL document CHEMBL1147438, “Discovery of novel aspartyl ketone dipeptides as potent and selective caspase-3 inhibitors” (Bioorg Med Chem Lett, 2004).

Legend:
Caspase-3 = molecular target: T1, Caspase-3 (Homo sapiens, UniProt P42574); assay: Inhibitory activity against caspase-3
T1 sequence (P42574 whole entry): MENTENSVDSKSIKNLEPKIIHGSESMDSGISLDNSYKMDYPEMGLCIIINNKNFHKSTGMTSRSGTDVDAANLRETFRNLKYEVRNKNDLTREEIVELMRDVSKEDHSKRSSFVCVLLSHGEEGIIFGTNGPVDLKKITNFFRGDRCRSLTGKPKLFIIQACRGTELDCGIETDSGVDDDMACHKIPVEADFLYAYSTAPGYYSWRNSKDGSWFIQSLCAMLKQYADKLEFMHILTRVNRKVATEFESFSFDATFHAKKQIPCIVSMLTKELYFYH

Caspase-1 = molecular target: T2, Caspase-1 (Homo sapiens, UniProt P29466); assay: Inhibitory activity against caspase-1
T2 sequence (P29466 whole entry): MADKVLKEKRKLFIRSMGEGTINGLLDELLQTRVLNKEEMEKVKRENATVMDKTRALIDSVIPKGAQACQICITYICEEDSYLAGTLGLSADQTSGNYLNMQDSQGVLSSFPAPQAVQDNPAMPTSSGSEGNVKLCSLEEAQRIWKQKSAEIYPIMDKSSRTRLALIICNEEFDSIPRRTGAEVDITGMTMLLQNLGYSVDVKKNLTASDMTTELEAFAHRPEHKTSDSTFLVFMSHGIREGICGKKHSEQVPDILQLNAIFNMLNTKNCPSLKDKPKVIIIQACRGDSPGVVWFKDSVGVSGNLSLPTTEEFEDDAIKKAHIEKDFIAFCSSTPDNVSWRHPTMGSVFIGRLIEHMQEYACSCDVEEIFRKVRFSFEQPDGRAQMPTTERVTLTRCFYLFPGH

Caspase-7 = molecular target: T3, Caspase-7 (Homo sapiens, UniProt P55210); assay: Inhibitory activity against caspase-7
T3 sequence (P55210 whole entry): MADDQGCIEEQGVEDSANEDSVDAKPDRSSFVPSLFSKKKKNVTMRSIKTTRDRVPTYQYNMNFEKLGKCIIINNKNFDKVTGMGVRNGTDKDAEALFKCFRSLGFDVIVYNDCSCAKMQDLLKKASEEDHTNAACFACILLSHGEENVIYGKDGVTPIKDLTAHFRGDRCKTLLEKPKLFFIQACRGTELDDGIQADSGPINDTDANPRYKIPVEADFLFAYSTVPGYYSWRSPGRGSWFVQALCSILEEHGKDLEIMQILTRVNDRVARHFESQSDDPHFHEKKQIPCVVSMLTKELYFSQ

Caspase-8 = Caspase-8 (Homo sapiens, UniProt Q14790); assay: Inhibitory activity against caspase-8
Caspase-8, sequence (Q14790 217-374 limits assumed): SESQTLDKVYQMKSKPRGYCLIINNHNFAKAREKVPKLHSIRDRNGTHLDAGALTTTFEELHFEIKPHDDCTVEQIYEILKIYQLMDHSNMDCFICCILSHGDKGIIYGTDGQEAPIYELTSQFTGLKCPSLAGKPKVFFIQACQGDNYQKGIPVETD
Caspase-8, sequence (Q14790 385-479 limits assumed): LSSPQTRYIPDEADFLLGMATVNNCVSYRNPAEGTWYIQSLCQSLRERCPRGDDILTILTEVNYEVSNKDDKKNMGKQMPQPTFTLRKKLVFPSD

NT2 = assay: Inhibitory activity against NT2 cells; format: functional, cell-based; conditions: Homo sapiens

| Compound | IC50 (Caspase-3) [nM] | IC50 (Caspase-1) [nM] | IC50 (Caspase-7) [nM] | IC50 (Caspase-8) [nM] | IC50 (NT2) [nM] |
| --- | --- | --- | --- | --- | --- |
| COc1ccccc1CC(=O)N[C@H](C(=O)N[C@@H](CC(=O)O)C(=O)CSCc1ccccc1)C(C)C | 310 | 28000 | 2700 | 15500 | – |
| COc1ccc(OC)c(CC(=O)N[C@H](C(=O)N[C@@H](CC(=O)O)C(=O)CSCc2ccccc2)C(C)C)c1 | 48 | 6000 | 3200 | 6600 | 10000 |
| COc1ccc(S(C)(=O)=O)cc1CC(=O)N[C@H](C(=O)N[C@@H](CC(=O)O)C(=O)CSCc1c(F)cccc1Cl)C(C)C | 5 | 1600 | 120 | 490 | 1000 |
| CC(C)[C@H](NC(=O)c1cc(Br)cc(Br)c1)C(=O)N[C@@H](CC(=O)O)C(=O)CSCc1ccccc1 | 140 | 860 | 1500 | 8700 | 63000 |
| COc1ccc(C(C)=O)cc1CC(=O)N[C@H](C(=O)N[C@@H](CC(=O)O)C(=O)CSCc1ccccc1)C(C)C | 10 | 5900 | 130 | 2900 | 2000 |
| COc1ccc(OC)c(CC(=O)N[C@H](C(=O)N[C@@H](CC(=O)O)C(=O)CSCc2c(F)cccc2Cl)C(C)C)c1 | 73 | 5000 | 2500 | 2400 | 9000 |
| CCOc1ccc(OCC(=O)O)cc1CC(=O)N[C@H](C(=O)N[C@@H](CC(=O)O)C(=O)CSCc1c(F)cccc1Cl)C(C)C | 5 | 3800 | 360 | 810 | 5000 |
| CCOc1ccc(OCC(=O)OC(C)C)cc1CC(=O)N[C@H](C(=O)N[C@@H](CC(=O)O)C(=O)CSCc1c(F)cccc1Cl)C(C)C | 94 | 4200 | 2300 | 6300 | 300 |
| CC(C)[C@H](NC(=O)c1cc2cc(F)ccc2[nH]1)C(=O)N[C@@H](CC(=O)O)C(=O)CSCc1ccccc1 | 83 | 2600 | 1400 | 3300 | 55000 |
| COc1cccc(CC(=O)N[C@H](C(=O)N[C@@H](CC(=O)O)C(=O)CSCc2ccccc2)C(C)C)c1 | 210 | 14000 | 3100 | 14000 | 60000 |
| CC(C)[C@H](NC(=O)[C@H](C)NC(=O)[C@H](CC(=O)O)NC(=O)c1ccccc1)C(=O)N[C@@H](CC(=O)O)C(=O)CCCc1ccccc1 | 1.8 | 1650 | 8.4 | 1500 | 14000 |
| CCOc1ccc(OCC(=O)OC)cc1CC(=O)N[C@H](C(=O)N[C@@H](CC(=O)O)C(=O)CSCc1c(F)cccc1Cl)C(C)C | 53 | 6500 | 1700 | 9300 | 700 |
| COc1ccc(OC)c(CC(=O)N[C@H](C(=O)N[C@@H](CC(=O)O)C(=O)CSCC2CCCCC2)C(C)C)c1 | 63 | 1800 | > 10000 | 2000 | 19000 |
| CC(C)[C@H](NC(=O)Cc1ccccc1)C(=O)N[C@@H](CC(=O)O)C(=O)CSCc1ccccc1 | 750 | 22000 | 8400 | 22500 | – |
| COc1ccc(OC)c(CC(=O)N[C@H](C(=O)N[C@@H](CC(=O)O)C(=O)CSCC(C)C)C(C)C)c1 | 130 | 2600 | 1800 | 7800 | 32000 |
| CC(=O)N[C@@H](CC(=O)O)C(=O)N[C@@H](CCC(=O)O)C(=O)N[C@H](C(=O)N[C@H](C=O)CC(=O)O)C(C)C | – | 190 | 87 | 130 | > 100000 |
| CCOc1ccc(/C=C/C(=O)OC)cc1CC(=O)N[C@H](C(=O)N[C@@H](CC(=O)O)C(=O)CSCc1c(F)cccc1Cl)C(C)C | – | 1800 | 24 | 3850 | 600 |
| COc1ccc(Br)cc1CC(=O)N[C@H](C(=O)N[C@@H](CC(=O)O)C(=O)CSCc1ccccc1)C(C)C | 60 | 3100 | 3100 | 2300 | 9000 |
